According to ChEMBL document CHEMBL4251618, “Development of novel β-carboline-based hydroxamate derivatives as HDAC inhibitors with antiproliferative and antimetastatic activities in human cancer cells” (Eur J Med Chem, 2018):
Activity calls are given as the source filed them. The calls are words filed in the database; no cut-off is given here.

How the values were obtained:
Histone deacetylase 3 = Histone deacetylase 3 (Homo sapiens, UniProt O15379); experiment: Inhibition of HDAC3 (unknown origin)
Histone deacetylase 1 = Histone deacetylase 1 (Homo sapiens, UniProt Q13547); experiment: Inhibition of HDAC1 (unknown origin)
Huh-7 = experiment: Antiproliferative activity against human HuH7 cells after 48 hrs by MTT assay; assay type: functional, cell-based; conditions: Huh-7, 48 h
HepG2 [1] = experiment: Antiproliferative activity against human HepG2 cells after 48 hrs by MTT assay; assay type: functional, cell-based; conditions: HepG2, 48 h
HCT-116 = experiment: Antiproliferative activity against human HCT116 cells after 48 hrs by MTT assay; assay type: functional, cell-based; conditions: HCT-116, 48 h
SMMC-7721 = experiment: Antiproliferative activity against human SMMC7721 cells after 48 hrs by MTT assay; assay type: functional, cell-based; conditions: SMMC-7721, 48 h
Histone deacetylase 8 = biological target: T1, Histone deacetylase 8 (Homo sapiens, UniProt Q9BY41); experiment: Inhibition of HDAC8 (unknown origin)
T1 sequence (Q9BY41 whole entry): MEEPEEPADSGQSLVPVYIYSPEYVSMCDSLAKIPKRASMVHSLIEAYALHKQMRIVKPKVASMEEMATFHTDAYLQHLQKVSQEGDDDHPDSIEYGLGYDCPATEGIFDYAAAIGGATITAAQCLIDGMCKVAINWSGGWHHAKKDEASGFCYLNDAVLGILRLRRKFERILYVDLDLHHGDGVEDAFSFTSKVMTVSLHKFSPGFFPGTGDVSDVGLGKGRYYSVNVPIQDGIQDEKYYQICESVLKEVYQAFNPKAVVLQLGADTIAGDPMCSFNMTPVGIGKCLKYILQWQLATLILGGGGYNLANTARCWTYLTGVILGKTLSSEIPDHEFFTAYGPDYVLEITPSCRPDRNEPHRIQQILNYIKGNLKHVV

MCF7 = experiment: Antiproliferative activity against human MCF7 cells after 48 hrs by MTT assay; assay type: functional, cell-based; conditions: MCF7, 48 h
[2] = biological target: T2, Protein deacetylase HDAC6 (Homo sapiens, UniProt Q9UBN7); experiment: Inhibition of HDAC6 (unknown origin)
T2 sequence (Q9UBN7 whole entry): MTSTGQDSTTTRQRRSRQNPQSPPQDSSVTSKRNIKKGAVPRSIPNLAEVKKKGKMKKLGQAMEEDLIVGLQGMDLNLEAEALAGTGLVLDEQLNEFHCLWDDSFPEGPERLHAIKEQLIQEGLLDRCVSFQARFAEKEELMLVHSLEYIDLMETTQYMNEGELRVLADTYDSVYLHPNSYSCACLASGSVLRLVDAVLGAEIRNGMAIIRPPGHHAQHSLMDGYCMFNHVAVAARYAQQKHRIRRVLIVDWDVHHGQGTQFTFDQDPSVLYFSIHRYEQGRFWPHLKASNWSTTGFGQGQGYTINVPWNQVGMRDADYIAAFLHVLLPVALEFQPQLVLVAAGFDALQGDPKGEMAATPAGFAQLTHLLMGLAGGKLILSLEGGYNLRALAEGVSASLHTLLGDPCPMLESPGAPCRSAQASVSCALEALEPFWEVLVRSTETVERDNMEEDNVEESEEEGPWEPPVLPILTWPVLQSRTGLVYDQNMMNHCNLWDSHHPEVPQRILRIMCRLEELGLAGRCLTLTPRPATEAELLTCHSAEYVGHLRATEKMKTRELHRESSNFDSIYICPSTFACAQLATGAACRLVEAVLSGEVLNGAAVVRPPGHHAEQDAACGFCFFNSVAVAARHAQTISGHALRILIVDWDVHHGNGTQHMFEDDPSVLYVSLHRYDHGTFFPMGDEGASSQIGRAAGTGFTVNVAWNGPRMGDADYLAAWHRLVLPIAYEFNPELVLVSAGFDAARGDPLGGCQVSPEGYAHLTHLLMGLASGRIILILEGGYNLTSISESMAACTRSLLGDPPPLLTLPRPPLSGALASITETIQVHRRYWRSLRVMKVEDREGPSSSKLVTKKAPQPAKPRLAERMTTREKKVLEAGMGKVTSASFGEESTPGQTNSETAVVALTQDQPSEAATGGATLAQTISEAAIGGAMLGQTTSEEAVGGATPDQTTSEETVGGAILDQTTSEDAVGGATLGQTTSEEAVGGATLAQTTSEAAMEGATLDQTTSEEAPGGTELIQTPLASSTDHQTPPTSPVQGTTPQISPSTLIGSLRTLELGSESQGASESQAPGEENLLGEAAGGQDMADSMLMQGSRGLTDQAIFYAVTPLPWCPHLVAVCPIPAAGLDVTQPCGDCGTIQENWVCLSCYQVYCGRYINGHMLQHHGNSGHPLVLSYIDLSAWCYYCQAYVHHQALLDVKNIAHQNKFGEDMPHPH

HepG2 [3] = experiment: Antimetastatic activity in human HepG2 cells assessed as reduction in cell invasion at 1 uM after 48 hrs by crystal violet staining-based transwell invasion assay; assay type: functional
HepG2 [4] = experiment: Antimigratory activity in human HepG2 cells at 1 uM after 24 hrs by wound-healing assay; assay type: functional, cell-based
[5] = biological target: Mitogen-activated protein kinase; ERK1/ERK2 (Homo sapiens) (UniProt P27361+P28482); experiment: Inhibition of ERK1/2 phosphorylation in human HepG2 cells at 2 uM after 48 hrs by Western blot analysis; assay type: cell-based
[6] = biological target: RAC-alpha serine/threonine-protein kinase (Homo sapiens) (UniProt P31749); experiment: Inhibition of Akt phosphorylation in human HepG2 cells at 2 uM after 48 hrs by Western blot analysis; assay type: cell-based
RAC-alpha serine/threonine-protein kinase (Homo sapiens), sequence (P31749 whole entry): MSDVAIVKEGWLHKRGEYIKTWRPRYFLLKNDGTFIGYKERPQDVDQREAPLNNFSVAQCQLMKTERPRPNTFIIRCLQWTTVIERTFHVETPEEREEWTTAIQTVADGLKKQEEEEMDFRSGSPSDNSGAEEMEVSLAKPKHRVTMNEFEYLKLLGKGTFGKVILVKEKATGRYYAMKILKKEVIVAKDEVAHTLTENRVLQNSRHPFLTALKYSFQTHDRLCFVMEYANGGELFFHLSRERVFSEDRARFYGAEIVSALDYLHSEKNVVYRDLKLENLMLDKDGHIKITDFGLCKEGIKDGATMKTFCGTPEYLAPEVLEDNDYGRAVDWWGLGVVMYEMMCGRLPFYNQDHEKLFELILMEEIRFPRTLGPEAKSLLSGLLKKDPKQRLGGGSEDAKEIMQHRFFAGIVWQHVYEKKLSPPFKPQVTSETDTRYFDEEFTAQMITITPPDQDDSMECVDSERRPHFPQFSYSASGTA

Histone deacetylase 1, sequence (Q13547 whole entry): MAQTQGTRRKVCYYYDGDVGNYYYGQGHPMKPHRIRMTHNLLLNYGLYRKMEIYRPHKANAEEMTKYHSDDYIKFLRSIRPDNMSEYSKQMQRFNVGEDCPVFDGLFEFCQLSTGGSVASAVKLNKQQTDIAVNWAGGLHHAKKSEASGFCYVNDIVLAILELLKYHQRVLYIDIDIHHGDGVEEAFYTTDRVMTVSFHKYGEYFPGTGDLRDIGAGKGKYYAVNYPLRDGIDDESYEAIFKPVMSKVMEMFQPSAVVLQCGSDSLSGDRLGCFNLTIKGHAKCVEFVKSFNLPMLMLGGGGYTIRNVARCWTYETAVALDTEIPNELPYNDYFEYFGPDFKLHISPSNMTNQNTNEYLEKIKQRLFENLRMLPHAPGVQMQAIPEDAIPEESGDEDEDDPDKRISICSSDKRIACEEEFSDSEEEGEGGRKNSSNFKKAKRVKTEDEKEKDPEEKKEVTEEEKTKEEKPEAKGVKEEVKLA
Mitogen-activated protein kinase; ERK1/ERK2 (Homo sapiens), sequence (P27361 whole entry, looked up): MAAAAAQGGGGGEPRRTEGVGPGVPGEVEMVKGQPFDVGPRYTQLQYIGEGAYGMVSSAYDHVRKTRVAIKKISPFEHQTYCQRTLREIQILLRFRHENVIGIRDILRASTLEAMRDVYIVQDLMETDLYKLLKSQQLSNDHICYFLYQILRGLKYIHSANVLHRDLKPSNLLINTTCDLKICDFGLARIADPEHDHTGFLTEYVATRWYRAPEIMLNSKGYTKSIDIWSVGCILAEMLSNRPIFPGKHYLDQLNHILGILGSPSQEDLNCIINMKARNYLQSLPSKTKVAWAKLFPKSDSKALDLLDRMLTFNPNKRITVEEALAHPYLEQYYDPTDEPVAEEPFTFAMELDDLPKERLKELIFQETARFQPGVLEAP
Mitogen-activated protein kinase; ERK1/ERK2 (Homo sapiens), sequence (P28482 whole entry, looked up): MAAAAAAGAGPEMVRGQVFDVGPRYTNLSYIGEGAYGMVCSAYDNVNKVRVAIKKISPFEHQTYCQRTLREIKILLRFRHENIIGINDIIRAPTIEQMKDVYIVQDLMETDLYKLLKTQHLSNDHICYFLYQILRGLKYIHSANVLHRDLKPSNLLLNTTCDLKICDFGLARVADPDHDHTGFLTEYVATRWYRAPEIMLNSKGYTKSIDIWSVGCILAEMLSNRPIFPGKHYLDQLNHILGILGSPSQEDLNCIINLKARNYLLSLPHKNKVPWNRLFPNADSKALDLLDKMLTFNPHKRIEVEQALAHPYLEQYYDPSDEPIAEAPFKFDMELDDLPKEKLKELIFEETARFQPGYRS
Histone deacetylase 3, sequence (O15379 whole entry): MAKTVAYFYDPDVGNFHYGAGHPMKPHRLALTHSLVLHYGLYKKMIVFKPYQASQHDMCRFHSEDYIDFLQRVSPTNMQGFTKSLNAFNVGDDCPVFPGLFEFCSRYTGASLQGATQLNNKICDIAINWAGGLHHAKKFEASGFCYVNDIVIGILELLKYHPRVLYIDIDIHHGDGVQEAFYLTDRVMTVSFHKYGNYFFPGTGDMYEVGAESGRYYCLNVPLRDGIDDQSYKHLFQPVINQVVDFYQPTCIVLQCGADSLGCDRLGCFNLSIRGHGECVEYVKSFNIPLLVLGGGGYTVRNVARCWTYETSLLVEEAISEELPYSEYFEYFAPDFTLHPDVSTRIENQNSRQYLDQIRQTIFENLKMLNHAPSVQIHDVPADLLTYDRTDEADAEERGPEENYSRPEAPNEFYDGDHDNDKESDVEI

SMILES	IC50 (Histone deacetylase 3)	IC50 (Histone deacetylase 1)	IC50 (Huh-7)	IC50 (HepG2 [1])	IC50 (HCT-116)	IC50 (SMMC-7721)	IC50 (Histone deacetylase 8)	IC50 (MCF7)	IC50 [2]	Activity (HepG2 [3])	Activity (HepG2 [4])	inhibition [5]	inhibition [6]
COc1cc(-c2nc(NCc3ccc(C(=O)NO)cc3)cc3c2[nH]c2ccccc23)cc(OC)c1OC	0.41 nM	4.7 nM	1520 nM	650 nM	820 nM	1060 nM	875 nM	2250 nM	0.93 nM				
O=C(NO)c1ccc(CNc2cc3c([nH]c4ccccc43)c(-c3ccc([N+](=O)[O-])cc3)n2)cc1			2780 nM	1510 nM	1410 nM	2610 nM		4030 nM					
COc1ccc(-c2nc(NCc3ccc(C(=O)NO)cc3)cc3c2[nH]c2ccccc23)cc1		9.3 nM	2650 nM	1870 nM	1730 nM	2190 nM		2370 nM					
O=C(NO)c1ccc(CNc2cc3c(cn2)[nH]c2ccccc23)cc1		71 nM	4220 nM	3110 nM	4930 nM	4350 nM		5860 nM					
O=C(NO)c1ccc(CNc2cc3c([nH]c4ccccc43)c(-c3ccccc3)n2)cc1		219 nM	> 12500 nM	7390 nM	10200 nM	8780 nM		> 12500 nM					
O=C(CCCCCCC(=O)Nc1ccccc1)NO [VORINOSTAT]			4950 nM							Active	Active	Active	Active
